The results in this text go back to PubChem BioAssay (NCI).

Among the test systems are RXF-631 renal; KM20L2 colon; DMS 114 small cell lung; HOP-18 NSCLC; LXFL 529 NSCLC; SNB-78 CNS; XF 498 CNS; MDA-N; DMS 273 small cell lung.
Holding throughout (experiment): DTP human tumour cell line panel, 48 h

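A five-concentration, 48-hour dose response in 96-well plates underlies each endpoint, interpolated linearly between surrounding concentrations. The concentration for 50% growth inhibition is given as GI50. TGI: concentration producing complete growth inhibition.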

Turning to `NC(=O)c1ncn(C2OC(CO)C(O)C2O)c1O` (stereo not drawn), the TGI with RXF-631 renal, with KM20L2 colon, in the test on DMS 114 small cell lung, in the test on HOP-18 NSCLC, in the test on LXFL 529 NSCLC and with SNB-78 CNS was more than 100 µM in each case. In addition, in the test with XF 498 CNS, the total growth inhibition concentration (TGI) (usually the concentration giving total growth inhibition) was more than 100 µM.

The molecule `Cc1c(-c2ccccn2)ccc2ccccc12` displayed a TGI with MDA-N of more than 100 µM.

`Cc1[nH]c2cc([N+](=O)[O-])ccc2c1[N+](=O)[O-]`: the TGI in the test on KM20L2 colon was more than 100 µM; with DMS 114 small cell lung, 33.6 µM; in the test with LXFL 529 NSCLC, 48.3 µM; in the test on XF 498 CNS, 50 µM.

As for `NS(=O)(=O)c1ccc(N=Nc2c[nH]c(=O)c(O)c2)cc1`, in the test on MDA-N, the total growth inhibition concentration (TGI) is more than 100 µM.

As to `CC1(C)C(=O)/C=C\C(=O)C(C)(C)C(=O)/C=C\C(=O)C(C)(C)C2=CC=C(O2)C(C)(C)C(=O)/C=C\C1=O`, the concentration for total growth inhibition (TGI) was more than 52.7 µM with RXF-631 renal; 28.3 µM in the test on KM20L2 colon; 21 µM in the test with DMS 114 small cell lung; 37.1 µM in the test with HOP-18 NSCLC; 6.14 µM with LXFL 529 NSCLC; 15.7 µM with SNB-78 CNS. Also, the figures for the TGI with MDA-N, with DMS 273 small cell lung and with XF 498 CNS were 19.1 µM, 10.1 µM and 3.86 µM, respectively.

The molecule `CSc1nc(SC)c2c(C)cn(COCCOC(=O)c3ccccc3)c2n1` displayed a concentration for total growth inhibition (TGI) in the test on MDA-N of more than 100 µM.

Turning to `CN(C)N=Nc1ccc(S(N)(=O)=O)cc1`, the TGI in the test on KM20L2 colon, in the test with DMS 114 small cell lung, in the test with HOP-18 NSCLC, with DMS 273 small cell lung and in the test with XF 498 CNS was more than 100 µM each time.

In the case of `N#CC(/C(CCCC(=O)Nc1cccc([N+](=O)[O-])c1)=N\NC(=O)c1c(O)ccc2ccccc12)c1nc2ccccc2s1` (stereo not drawn), the TGI was more than 100 µM in the test with KM20L2 colon; 34.5 µM with DMS 114 small cell lung; more than 100 µM in the test on HOP-18 NSCLC; more than 100 µM with LXFL 529 NSCLC; more than 100 µM with SNB-78 CNS; 68.3 µM in the test with DMS 273 small cell lung. The concentration for total growth inhibition (TGI) in the test with XF 498 CNS was more than 100 µM.

With `O=C(CCc1ccccc1)CC1OC(=O)C(Cl)=C1Cl` (stereo not drawn), the total growth inhibition concentration (TGI) in the test on KM20L2 colon is 26.5 µM; in the test with HOP-18 NSCLC, 59.6 µM; in the test on LXFL 529 NSCLC, 29.4 µM; in the test on SNB-78 CNS it was more than 100 µM; with DMS 273 small cell lung, 44 µM; in the test with XF 498 CNS, 41.4 µM.

As to `CN1CCN(c2nc(N)c(Br)c(Cl)n2)CC1`, the TGI with KM20L2 colon, in the test with DMS 114 small cell lung, in the test on LXFL 529 NSCLC, in the test on SNB-78 CNS, with DMS 273 small cell lung and with XF 498 CNS was more than 100 µM in each case.

Turning to `COC(=O)[C@@]12C3=NO[C@]1(C(=O)OC)C(O[Si](C)(C)C(C)(C)C)[C@@H](OC(C)=O)[C@@H](OC(C)=O)[C@@H]2[C@@H](OCc1ccccc1)CC3` (stereo partly drawn), the total growth inhibition concentration (TGI) in the test on KM20L2 colon, in the test on DMS 114 small cell lung, in the test on HOP-18 NSCLC, in the test on LXFL 529 NSCLC, in the test with SNB-78 CNS and with DMS 273 small cell lung was more than 100 µM throughout. The same molecule returned a total growth inhibition concentration (TGI) with XF 498 CNS of more than 100 µM.

Turning to `COc1ccc(C(=O)C(C(=O)C(=O)NCCCNC(=O)C(=O)C(C(=O)c2ccc(OC)cc2)c2ccc(OC)cc2)c2ccc(OC)cc2)cc1` (stereo not drawn), the concentration for total growth inhibition (TGI) with KM20L2 colon, with DMS 114 small cell lung, in the test on HOP-18 NSCLC, in the test with LXFL 529 NSCLC, in the test on SNB-78 CNS and in the test on DMS 273 small cell lung was more than 100 µM throughout. Also, in the test on XF 498 CNS, the total growth inhibition concentration (TGI) is more than 100 µM.

In the case of `CC1=C2C=CC(=O)C[C@@]2(C)CCC1`, the concentration for total growth inhibition (TGI) in the test on RXF-631 renal, with DMS 114 small cell lung, in the test with LXFL 529 NSCLC, with SNB-78 CNS, in the test with DMS 273 small cell lung and in the test on XF 498 CNS was more than 100 µM each time.

In the test on MDA-N, `N=C(CC(=O)Nc1ccccn1)c1ccccc1` showed a total growth inhibition concentration (TGI) of more than 100 µM.

Regarding `CCOC(=O)C1C(=O)CC(=O)C2CCCCC21` (stereo not drawn), the TGI in the test on RXF-631 renal, in the test with DMS 114 small cell lung, with LXFL 529 NSCLC, in the test with SNB-78 CNS, with DMS 273 small cell lung and in the test on XF 498 CNS was more than 100 µM each time.

On to `CC(=O)[CH-]C(=O)c1ccccc1.CC(=O)[CH-]C(=O)c1ccccc1.CC(=O)[CH-]C(=O)c1ccccc1.[Ga+3]`, for which the GI50 (as a rule, the concentration giving 50% growth inhibition) in the test with KM20L2 colon is 18.5 µM; with HOP-18 NSCLC, 18 µM; in the test with LXFL 529 NSCLC, 12 µM. The TGI in the test with KM20L2 colon was 42.6 µM; with HOP-18 NSCLC, 61.5 µM; in the test with LXFL 529 NSCLC, 24.8 µM.

`O=C(N/C(=C\c1ccc(/C=C(\NC(=O)c2ccccc2)c2nc3c(O)nc(S)nc3[nH]2)cc1)c1nc2c(O)nc(S)nc2[nH]1)c1ccccc1`: the concentration for total growth inhibition (TGI) with RXF-631 renal, in the test on KM20L2 colon, in the test on DMS 114 small cell lung, in the test with HOP-18 NSCLC, in the test with LXFL 529 NSCLC and in the test with SNB-78 CNS was more than 100 µM throughout. In addition, the TGI with DMS 273 small cell lung and with XF 498 CNS was more than 100 µM throughout.

As for `N#Cc1ccc(C2SCc3nc4ccccc4n32)cc1` (stereo not drawn), the concentration for total growth inhibition (TGI) with KM20L2 colon, with HOP-18 NSCLC, with LXFL 529 NSCLC, with SNB-78 CNS, in the test with DMS 273 small cell lung and in the test on XF 498 CNS was more than 100 µM throughout.

For `CC(=O)C1C(=O)C(=O)N(CCN2C(=O)C(=O)C(C(C)=O)C2=O)C1=O` (stereo not drawn), the TGI with RXF-631 renal, in the test on KM20L2 colon, with DMS 114 small cell lung, in the test with HOP-18 NSCLC, in the test with LXFL 529 NSCLC and with DMS 273 small cell lung was more than 100 µM throughout. The molecule further came in with a total growth inhibition concentration (TGI) in the test on XF 498 CNS of more than 100 µM.

For the molecule `CC(=O)CC(=O)Nc1ccccc1C(F)(F)F`, the TGI in the test with RXF-631 renal, in the test on KM20L2 colon, with DMS 114 small cell lung, in the test on LXFL 529 NSCLC, with SNB-78 CNS and in the test with XF 498 CNS was more than 100 µM throughout.

Turning to `CCN(CC)C(=S)SS(C)(=O)=O`, the TGI is more than 100 µM in the test with HOP-18 NSCLC, 30 µM with LXFL 529 NSCLC, 43.7 µM with SNB-78 CNS and 36 µM with DMS 273 small cell lung.

Consider `CSc1nnc(C(C#N)C#N)nn1`, for which the TGI in the test on RXF-631 renal, in the test on KM20L2 colon, with DMS 114 small cell lung, in the test on LXFL 529 NSCLC, with SNB-78 CNS and with DMS 273 small cell lung was more than 100 µM each time. The molecule further registered a TGI in the test with XF 498 CNS of more than 100 µM.

Turning to `COC1/C(=C\C(C)=O)c2ccccc2N1C(C)=O` (stereo not drawn), the concentration for total growth inhibition (TGI) in the test with RXF-631 renal, with KM20L2 colon, with HOP-18 NSCLC, with LXFL 529 NSCLC, with DMS 273 small cell lung and in the test with XF 498 CNS was more than 100 µM in each case.

With `CCN(CC)c1ccc(C2N3CCCCC3[C@@H]3c4[nH]c5ccccc5c4CCN23)cc1` (stereo partly drawn), the TGI with KM20L2 colon is more than 100 µM; with DMS 114 small cell lung, 33.1 µM; in the test on HOP-18 NSCLC, more than 100 µM; in the test with LXFL 529 NSCLC it was 55.6 µM; in the test on SNB-78 CNS, 61.3 µM; with DMS 273 small cell lung, more than 100 µM. Also, in the test with XF 498 CNS, the total growth inhibition concentration (TGI) is 41 µM.

`COc1ccc(C(O)c2ccccn2)cc1` (stereo not drawn): in the test on MDA-N, the TGI is more than 100 µM.

Regarding `Cc1cc(Br)ccc1N=Nc1c(C)nn(-c2ccccc2)c1-c1ccccc1`, the TGI in the test with DMS 114 small cell lung, in the test on HOP-18 NSCLC, with LXFL 529 NSCLC, in the test with SNB-78 CNS, with DMS 273 small cell lung and with XF 498 CNS was more than 100 µM each time.

In the test with MDA-N, `CCC(c1ccccc1)c1cc(C(C)(C)C)cc(C(C)(C)C)c1O` (stereo not drawn) showed a TGI of 30.9 µM.

`C=CCSC(C)=O`: the TGI in the test on MDA-N is more than 100 µM.

In the test with MDA-N, `COc1ccc(/C=C/c2ccnc3ccccc23)cc1OC` displayed a total growth inhibition concentration (TGI) of 27 µM.

For the molecule `COc1cc(O)c(C(=O)/C=C/c2ccc(OC)c(OCc3ccccc3)c2)c(OC)c1`, the TGI with KM20L2 colon is more than 100 µM; in the test with HOP-18 NSCLC, more than 100 µM; in the test on LXFL 529 NSCLC, more than 100 µM; with SNB-78 CNS, 6.52 µM; with DMS 273 small cell lung, 1.76 µM; in the test on XF 498 CNS, more than 100 µM.

The molecule `O=C1C=CC(=O)c2c1nc(CBr)[nH]c2=O` returned a TGI with MDA-N of more than 100 µM.
